The results in this text go back to patent publication US8575135B2 (Gilead Sciences, Inc., priority 2011, dated 2013).

SMILES strings stand for the structures. Read-outs that look alike come from different tables or passages of the source.

Experiment in all cases: microbe, parasite or virus in culture
Holding throughout (settings): Hepatitis C virus

The test system of test [1] is stable HCV 1a RLuc replicon cells (genotype 1a H77 replicon). Type of test: cell-based.
The subject of test [2] is NS5A chimeric genotype 1b Con1 replicon with genotype 4a ED43 strain NS5A gene. In kind it is cell-based, HCV.
The test system of test [3] is 1a Pi-Rluc replicon with Q30R in genotype 1a NS5A. Type of test: cell-based, HCV. The method in brief: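 Q30R introduced by site-directed mutagenesis into genotype 1a Pi-RLuc replicon; RNA transiently transfected into Huh-7-derived cured-51 cells.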
Test [4] has as its system stable HCV 2a JFH-1 Rluc replicon cells (L31 present in NS5A). Type of test: cell-based.
For test [5], the system named is NS5A chimeric genotype 2a JFH-1 replicon with genotype 2a J6 strain NS5A gene (M31 present). In kind it is cell-based, HCV.
Test [6] deals with NS5A chimeric genotype 1b Con1 replicon with genotype 3a S52 strain NS5A gene. In kind it is cell-based, HCV. The method, boiled down:
(§1)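 Con1-based 3a and 4a chimeras carried a Pi-RLuc reporter and were transiently transfected into Huh-Lunet cells; the JFH-1-based 2b chimera (RLuc-Neo) was used transiently or as stable replicon cells.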

The subject of test [7] is NS5A chimeric genotype 2a JFH-1 replicon with genotype 2b MD2b-1 strain NS5A gene (M31 present). Type of test: cell-based, HCV. The method in brief: as §1

Regarding `COC(=O)N[C@H](C(=O)N1C[C@@H](C)C[C@H]1c1ncc(-c2ccc3c(c2)COc2cc4c(ccc5nc([C@@H]6C[C@H](C)CN6C(=O)[C@@H](NC(=O)OC)C(C)C)[nH]c54)cc2-3)[nH]1)C(C)C` [Example ND, Methyl {(2S)-1-[(2S,5S)-2-(5-{2-[(2S,4S)-1-{(2S)-2-[(methoxycarbonyl)amino]-3-methylbutanoyl}-4-methylpyrrolidin-2-yl]-1,11-dihydroisochromeno[4′,3′:6,7]naphtho[1,2-d]imidazol-9-yl}-1H-imidazol-2-yl)-4-methylpyrrolidin-1-yl]-3-methyl-1-oxobutan-2-yl}carbamate], the EC50 was less than 1 nM in test [1] (read-out: 1a); 0.02 nM in test [1] (read-out: 1a (nM)); less than 1 nM in test [2] (read-out: 4a); 0.044 nM in test [2] (read-out: 4a (s) (nM)); 0.031 nM in test [2] (read-out: 4a (t) (nM)); less than 1 nM in test [3] (read-out: 1a Q30R). The EC50 was 0.057 nM in test [3] (read-out: 1a Q30R (nM)); less than 1 nM in test [4] (read-out: 2a JFH); 0.014 nM in test [4] (read-out: 2a JFH (nM)); less than 1 nM in test [5] (read-out: 2a J6); 2.34 nM in test [5] (read-out: 2a J6 (s) (nM)); 0.314 nM in test [5] (read-out: 2a Jb (t) (nM)). Moreover, the EC50 in test [6] (read-out: 3a) is less than 1 nM; in test [6] (read-out: 3a (nM)), 0.035 nM; in test [7] (read-out: 2b) it was less than 1 nM; in test [7] (read-out: 2b (s) (nM)), 1.32 nM; in test [7] (read-out: 2b (t) (nM)) it was 0.27 nM.
`COC[C@H]1C[C@@H](c2nc3ccc4cc5c(cc4c3[nH]2)OCc2cc(-c3cnc([C@@H]4CCCN4C(=O)[C@H](NC(=O)OC)c4ccccc4)[nH]3)ccc2-5)N(C(=O)[C@@H](NC(=O)OC)C(C)C)C1` [Example MM, methyl {(1R)-2-[(2S)-2-(5-{2-[(2S,4S)-1-{(2S)-2-[(methoxycarbonyl)amino]-3-methylbutanoyl}-4-(methoxymethyl)pyrrolidin-2-yl]-1,11-dihydroisochromeno[4′,3′:6,7]naphtho[1,2-d]imidazol-9-yl}-1H-imidazol-2-yl)pyrrolidin-1-yl]-2-oxo-1-phenylethyl}carbamate]: the EC50 in test [1] (read-out: 1a) was less than 1 nM; in test [1] (read-out: 1a (nM)), 0.022 nM; in test [2] (read-out: 4a) it was less than 1 nM; in test [2] (read-out: 4a (s) (nM)), 0.016 nM; in test [2] (read-out: 4a (t) (nM)), 0.017 nM; in test [3] (read-out: 1a Q30R) it was less than 1 nM. In addition, the EC50 was 0.044 nM in test [3] (read-out: 1a Q30R (nM)); less than 1 nM in test [4] (read-out: 2a JFH); 0.007 nM in test [4] (read-out: 2a JFH (nM)); less than 1 nM in test [5] (read-out: 2a J6); 0.064 nM in test [5] (read-out: 2a J6 (s) (nM)); 0.018 nM in test [5] (read-out: 2a Jb (t) (nM)). The EC50 in test [6] (read-out: 3a) is less than 1 nM; in test [6] (read-out: 3a (nM)), 0.02 nM; in test [7] (read-out: 2b), less than 1 nM; in test [7] (read-out: 2b (s) (nM)), 0.042 nM; in test [7] (read-out: 2b (t) (nM)), 0.015 nM.
In the case of `CC[C@H](C)[C@H](NC(=O)OC)C(=O)N1C[C@@H](COC)C[C@H]1c1nc2ccc3cc4c(cc3c2[nH]1)OCc1cc(-c2cnc([C@@H]3CC[C@H](C)N3C(=O)[C@@H](NC(=O)OC)[C@@H](C)CC)[nH]2)ccc1-4` [Example NJ, Methyl {(2S,3S)-1-[(2S,5S)-2-(5-{2-[(2S,4S)-1-{(2S,3S)-2-[(methoxycarbonyl)amino]-3-methylpentanoyl}-4-(methoxymethyl)pyrrolidin-2-yl]-1,11-dihydroisochromeno[4′,3′:6,7]naphtho[1,2-d]imidazol-9-yl}-1H-imidazol-2-yl)-5-methylpyrrolidin-1-yl]-3-methyl-1-oxopentan-2-yl}carbamate], the EC50 in test [1] (read-out: 1a) is less than 1 nM; in test [1] (read-out: 1a (nM)), 0.007 nM; in test [2] (read-out: 4a) it was less than 1 nM; in test [2] (read-out: 4a (s) (nM)), 0.017 nM; in test [3] (read-out: 1a Q30R), less than 1 nM; in test [3] (read-out: 1a Q30R (nM)) it was 0.025 nM. The EC50 in test [4] (read-out: 2a JFH) was less than 1 nM; in test [4] (read-out: 2a JFH (nM)) it was 0.007 nM; in test [5] (read-out: 2a J6), less than 1 nM; in test [5] (read-out: 2a J6 (s) (nM)), 0.939 nM; in test [5] (read-out: 2a Jb (t) (nM)), 0.099 nM; in test [6] (read-out: 3a), less than 1 nM. In addition, the EC50 in test [6] (read-out: 3a (nM)) was 0.019 nM; in test [7] (read-out: 2b), less than 1 nM; in test [7] (read-out: 2b (s) (nM)) it was 0.416 nM; in test [7] (read-out: 2b (t) (nM)), 0.094 nM.
On to `CCO[C@H]1C[C@@H](c2nc3ccc4cc5c(cc4c3[nH]2)OCc2cc(-c3cnc([C@@H]4CCCN4C(=O)[C@H](NC(=O)OC)c4ccccc4)[nH]3)ccc2-5)N(C(=O)[C@@H](NC(=O)OC)C(C)C)C1` [Example OR, Methyl {(1R)-2-[(2S)-2-(5-{2-[(2S,4S)-4-ethoxy-1-{(2S)-2-[(methoxycarbonyl)amino]-3-methylbutanoyl}pyrrolidin-2-yl]-1,11-dihydroisochromeno[4′,3′:6,7]naphtho[1,2-d]imidazol-9-yl}-1H-imidazol-2-yl)pyrrolidin-1-yl]-2-oxo-1-phenylethyl}carbamate], for which the EC50 was less than 1 nM in test [1] (read-out: 1a); 0.03 nM in test [1] (read-out: 1a (nM)); less than 1 nM in test [2] (read-out: 4a); 0.006 nM in test [2] (read-out: 4a (s) (nM)); 0.036 nM in test [2] (read-out: 4a (t) (nM)); less than 1 nM in test [3] (read-out: 1a Q30R). Further, the EC50 in test [3] (read-out: 1a Q30R (nM)) is 0.059 nM; in test [4] (read-out: 2a JFH), less than 1 nM; in test [4] (read-out: 2a JFH (nM)), 0.011 nM; in test [5] (read-out: 2a J6) it was less than 1 nM; in test [5] (read-out: 2a J6 (s) (nM)) it was 0.16 nM; in test [5] (read-out: 2a Jb (t) (nM)), 0.068 nM. Further, the EC50 is less than 1 nM in test [6] (read-out: 3a); 0.031 nM in test [6] (read-out: 3a (nM)); less than 1 nM in test [7] (read-out: 2b); 0.109 nM in test [7] (read-out: 2b (s) (nM)); 0.037 nM in test [7] (read-out: 2b (t) (nM)).
For the molecule `COC[C@H]1C[C@@H](c2nc3c([nH]2)-c2cc4c(cc2CC3)-c2ccc(-c3cnc([C@@H]5CCCN5C(=O)[C@@H](NC(=O)OC)C(C)C)[nH]3)cc2CO4)N(C(=O)[C@H](NC(=O)OC)c2ccccc2)C1` [Example MR, methyl{(1R)-2-[(2S,4S)-2-(9-{2-[(2S)-1-{(2S)-2-[(methoxycarbonyl)amino]-3-methylbutanoyl}pyrrolidin-2-yl)-1H-imidazol-5-yl]-1,11-dihydroisochromeno[4′,3′:6,7]-4,5-dihydro-naphtho[1,2-d]imidazol-2-yl}-(methoxymethyl)pyrrolidin-1-yl]-2-oxo-1-phenylethyl}carbamate], the EC50 in test [1] (read-out: 1a) is less than 1 nM; in test [1] (read-out: 1a (nM)) it was 0.028 nM; in test [2] (read-out: 4a) it was less than 1 nM; in test [2] (read-out: 4a (t) (nM)), 0.045 nM; in test [3] (read-out: 1a Q30R) it was less than 1 nM; in test [3] (read-out: 1a Q30R (nM)), 0.128 nM. In addition, the EC50 in test [4] (read-out: 2a JFH) was less than 1 nM; in test [4] (read-out: 2a JFH (nM)), 0.017 nM; in test [5] (read-out: 2a J6), less than 1 nM; in test [5] (read-out: 2a J6 (s) (nM)), 0.176 nM; in test [5] (read-out: 2a Jb (t) (nM)), 0.079 nM; in test [6] (read-out: 3a), less than 1 nM. The EC50 in test [6] (read-out: 3a (nM)) was 0.078 nM; in test [7] (read-out: 2b), less than 1 nM; in test [7] (read-out: 2b (s) (nM)), 0.053 nM; in test [7] (read-out: 2b (t) (nM)), 0.039 nM.
`COC(=O)N[C@H](C(=O)N1[C@@H]2C[C@@H]2C[C@H]1c1nc2ccc3cc4c(cc3c2[nH]1)OCc1cc(-c2cnc([C@@H]3CCCN3C(=O)[C@H](NC(=O)OC)c3ccccc3)[nH]2)ccc1-4)C(C)C` [Compound 536]: the EC50 in test [1] (read-out: 1a) is less than 1 nM; in test [1] (read-out: 1a (nM)), 0.008 nM; in test [2] (read-out: 4a), less than 1 nM; in test [2] (read-out: 4a (s) (nM)) it was 0.01 nM; in test [2] (read-out: 4a (t) (nM)), 0.005 nM; in test [3] (read-out: 1a Q30R), less than 1 nM. The EC50 in test [3] (read-out: 1a Q30R (nM)) is 0.048 nM; in test [4] (read-out: 2a JFH), less than 1 nM; in test [4] (read-out: 2a JFH (nM)), 0.004 nM; in test [5] (read-out: 2a J6) it was less than 1 nM; in test [5] (read-out: 2a J6 (s) (nM)), 0.154 nM; in test [5] (read-out: 2a Jb (t) (nM)) it was 0.04 nM. In addition, the EC50 in test [6] (read-out: 3a) was less than 1 nM; in test [6] (read-out: 3a (nM)), 0.009 nM; in test [7] (read-out: 2b), less than 1 nM; in test [7] (read-out: 2b (s) (nM)), 0.037 nM; in test [7] (read-out: 2b (t) (nM)) it was 0.011 nM.
Regarding `COC(=O)N[C@H](C(=O)N1CCC[C@H]1c1ncc(-c2ccc3c(c2)COc2cc4c(ccc5nc([C@@H]6C[C@H](C)CN6C(=O)[C@H](NC(=O)OC)c6ccccc6)[nH]c54)cc2-3)[nH]1)C(C)C` [Example MY, Methyl {2-[2-{9-[2-(1-{2-[(methoxycarbonyl)amino]-3-methylbutanoyl}pyrrolidin-2-yl)-1H-imidazol-5-yl]-1,11-dihydroisochromeno[4′,3′:6,7]naphtho[1,2-d]imidazol-2-yl}-4-(methyl)pyrrolidin-1-yl]-2-oxo-1-phenylethyl}carbamate], the EC50 was less than 1 nM in test [1] (read-out: 1a); 0.016 nM in test [1] (read-out: 1a (nM)); less than 1 nM in test [2] (read-out: 4a); 0.02 nM in test [2] (read-out: 4a (s) (nM)); 0.008 nM in test [2] (read-out: 4a (t) (nM)); less than 1 nM in test [3] (read-out: 1a Q30R). The EC50 in test [3] (read-out: 1a Q30R (nM)) was 0.024 nM; in test [4] (read-out: 2a JFH), less than 1 nM; in test [4] (read-out: 2a JFH (nM)), 0.005 nM; in test [5] (read-out: 2a J6), less than 1 nM; in test [5] (read-out: 2a J6 (s) (nM)), 0.165 nM; in test [5] (read-out: 2a Jb (t) (nM)), 0.047 nM. Further, the EC50 in test [6] (read-out: 3a) is less than 1 nM; in test [6] (read-out: 3a (nM)), 0.01 nM; in test [7] (read-out: 2b), less than 1 nM; in test [7] (read-out: 2b (s) (nM)), 0.047 nM; in test [7] (read-out: 2b (t) (nM)), 0.016 nM.
